The source made the active and inactive calls. The calls are words filed in the database; no cut-off is given here.
Experiments:
[1] = tested on: Human alphaherpesvirus 1; assay: Antiviral activity against Herpes simplex virus type 1 infected in Vero cells at 0.001 ID50/cells assessed as destruction of cell layer after 3 days by neutral red dye method; type: functional, organism-based
[2] = tested on: Human alphaherpesvirus 1; assay: Antiviral activity against Herpes simplex virus type 1 infected in Vero cells at 0.001 ID50/cells assessed as protection against virus-induced cytopathic effect after 3 days by neutral red dye method; type: functional, organism-based; details: Human alphaherpesvirus 1, Vero, 72 h
[3] = Cytotoxicity against african green monkey Vero cells after 3 days by neutral red dye method; type: cell-based; details: chlorocebus sabaeus
[4] = tested on: Human alphaherpesvirus 1; assay: Antiviral activity against Herpes simplex virus type 1 infected in Vero cells at 0.001 ID50/cells assessed as change in cell morphology after 3 days by neutral red dye method; type: functional, organism-based
[5] = tested on: Human alphaherpesvirus 1; assay: Antiviral activity against Herpes simplex virus type 1 infected in Vero cells at 0.001 ID50/cells assessed as protection against virus-induced cytopathic effect at 200 ug/ml after 3 days by neutral red dye method relative to control; type: functional
[6] = tested on: Human alphaherpesvirus 1; assay: Ratio of acyclovir EC50 to compound EC50 for Herpes simplex virus type 1; type: functional
[7] = tested on: Human alphaherpesvirus 1; assay: Antiviral activity against Herpes simplex virus type 1 infected in Vero cells at 0.01 ID50/cells assessed as protection against virus-induced cytopathic effect after 3 days by neutral red dye method; type: functional, organism-based; details: Human alphaherpesvirus 1, Vero, 72 h

Row | SMILES | Activity [1] | EC50 [2] [µM] | CC50 at 72 h [3] [µM] | Activity [4] | Activity [5] [%] | ratio [6] | EC50 [7] [µM]
1 | Cc1ccc(-c2c(O)ccn([C@@H]3O[C@H](CO)[C@@H](O)[C@H]3O)c2=O)cc1 | Active | > 100 | > 400 | Active | – | – | –
2 | COc1ccc(-c2c(O)ccn([C@@H]3O[C@H](COC(C)=O)[C@@H](OC(C)=O)[C@H]3OC(C)=O)c2=O)cc1 | Active | 10.5 | > 200 | Active | 85 | 7.2 | > 100
3 | CCOc1ccc(-c2c(O)c(-c3ccccc3)cn([C@@H]3O[C@H](CO)[C@@H](O)[C@H]3O)c2=O)cc1 | – | – | > 200 | – | – | – | > 100
4 | COc1c(C)cc(-c2c(O)ccn([C@@H]3O[C@H](CO)[C@@H](O)[C@H]3O)c2=O)cc1C | – | – | > 200 | – | – | – | > 100
5 | COc1ccc(-c2c(O)ccn([C@@H]3O[C@H](COC(C)=O)[C@@H](OC(C)=O)[C@H]3OC(C)=O)c2=O)cc1OC | Active | 36.6 | > 200 | Active | 75 | 2.1 | > 100
6 | CC(=O)OC[C@H]1O[C@@H](n2ccc(O)c(-c3ccc4c(c3)OCO4)c2=O)[C@H](OC(C)=O)[C@@H]1OC(C)=O | Active | > 100 | > 400 | Active | – | – | –
7 | CCOc1ccc(-c2c(O)ccn([C@@H]3O[C@H](CO)[C@@H](O)[C@H]3O)c2=O)cc1 | – | – | > 200 | – | – | – | > 100
8 | O=c1cc(O)c(-c2ccccc2)cn1[C@@H]1O[C@H](CO)[C@@H](O)[C@H]1O | – | – | > 200 | – | – | – | > 100
9 | O=c1c(-c2ccc(C3CCCCC3)cc2)c(O)ccn1[C@@H]1O[C@H](CO)[C@@H](O)[C@H]1O | – | – | > 200 | – | – | – | > 100
10 | Nc1nc2c(ncn2COCCO)c(=O)[nH]1 [ACYCLOVIR] | – | 0.76 | > 200 | – | – | – | 22
11 | COc1cc(-c2c(O)ccn([C@@H]3O[C@H](CO)[C@@H](O)[C@H]3O)c2=O)cc(OC)c1OC | – | – | > 200 | – | – | – | > 100
12 | O=c1c(-c2ccccc2)c(O)ccn1[C@@H]1O[C@H](CO)[C@@H](O)[C@H]1O | Active | > 100 | > 400 | Active | – | – | –
13 | COc1ccc(-c2c(O)ccn([C@@H]3O[C@H](CO)[C@@H](O)[C@H]3O)c2=O)cc1 | Active | 20 | > 400 | Active | 82 | 3.8 | > 100
14 | O=c1c(-c2ccc3c(c2)OCO3)c(O)ccn1[C@@H]1O[C@H](CO)[C@@H](O)[C@H]1O | Active | > 100 | > 400 | Active | – | – | –
15 | CC(=O)OC[C@H]1O[C@@H](n2c(=O)cc(O)c3ccccc32)[C@H](OC(C)=O)[C@@H]1OC(C)=O | – | – | > 200 | – | – | – | > 100
16 | CCOc1ccc(-c2c(O)c(-c3ccccc3)cn([C@@H]3O[C@H](COC(C)=O)[C@@H](OC(C)=O)[C@H]3OC(C)=O)c2=O)cc1 | – | – | > 200 | – | – | – | > 100
17 | CC(=O)OC[C@H]1O[C@@H](n2ccc(O)c(-c3ccc(C)cc3)c2=O)[C@H](OC(C)=O)[C@@H]1OC(C)=O | Active | > 100 | > 400 | Active | – | – | –

Reference: ChEMBL document CHEMBL2203237, “Synthesis of C3-arylated-3-deazauridine derivatives with potent anti-HSV-1 activities” (Bioorg Med Chem Lett, 2012)
